≈ marks a conversion by molar mass, not a printed value.
Target: T1, Carbonic anhydrase 4 (Bos taurus, UniProt Q95323)
T1 sequence (Q95323 whole entry): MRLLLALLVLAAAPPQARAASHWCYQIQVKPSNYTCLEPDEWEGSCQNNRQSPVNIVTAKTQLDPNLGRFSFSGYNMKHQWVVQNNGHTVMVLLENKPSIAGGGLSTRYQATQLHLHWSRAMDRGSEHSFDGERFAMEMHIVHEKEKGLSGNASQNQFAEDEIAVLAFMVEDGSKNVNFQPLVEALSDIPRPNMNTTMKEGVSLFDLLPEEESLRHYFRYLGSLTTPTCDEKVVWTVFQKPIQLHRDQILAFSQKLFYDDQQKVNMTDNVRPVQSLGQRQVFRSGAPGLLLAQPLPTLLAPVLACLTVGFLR
Description: Inhibitory activity against bovine lung microsomes carbonic anhydrase isozyme IV (bCA IV).

SMILES	Ki
NS(=O)(=O)c1nnc(NC(=O)CCNC(=O)c2cccc(C(=O)O)n2)s1	9 nM
NS(=O)(=O)c1ccc(NN2C(=O)c3cccnc3C2=O)cc1	300 nM
Nc1c(S(N)(=O)=O)cc(S(N)(=O)=O)c(Cl)c1Cl	175 nM
CCN(C(=O)c1cccnc1C(=O)O)C1CC(C)S(=O)(=O)c2sc(S(N)(=O)=O)cc21.CCN(C(=O)c1ncccc1C(=O)O)C1CC(C)S(=O)(=O)c2sc(S(N)(=O)=O)cc21 (stereo not given)	18 nM
NS(=O)(=O)c1ccc(CONC(=O)c2cccc(C(=O)O)n2)cc1	120 nM

Continued, values first:

Ki	SMILES
310 nM	NS(=O)(=O)c1ccccc1N1C(=O)c2cccnc2C1=O
66 nM	NS(=O)(=O)c1ccc(NC(=O)c2cccc(C(=O)O)n2)c(Cl)c1
125 nM	NCCC(=O)Nc1nnc(S(N)(=O)=O)s1
105 nM	NS(=O)(=O)c1ccc(CCONC(=O)c2cccc(C(=O)O)n2)cc1
15 nM	NS(=O)(=O)c1nc2ccc(OCCO)cc2s1
1310 nM	Nc1ccccc1S(N)(=O)=O
69 nM	NS(=O)(=O)c1cc(S(N)(=O)=O)c(N2C(=O)c3cccnc3C2=O)c(Cl)c1Cl
150 nM	NS(=O)(=O)c1ccc(NC(=O)c2cccc(C(=O)O)n2)cc1
450 nM	NS(=O)(=O)c1ccc(CCO)cc1
285 nM	NS(=O)(=O)c1cccc(NC(=O)c2cccc(C(=O)O)n2)c1

Species on record: Oryctolagus cuniculus
Assay type: functional, Eye
Description: In vivo fall of IOP of normotensive rabbits after treatment with 1 drop(50 microL) of 2% solution of CA inhibitor with pH value 5.5 into the eye at 60 min

SMILES	Delta IOP
Cl.NS(=O)(=O)c1ccc(CCN2C(=O)c3cccnc3C2=O)cc1	4.8 mmHg
Cl.NS(=O)(=O)c1ccc(NC(=O)c2cccc(C(=O)O)n2)c(F)c1	4.2 mmHg
Cl.NS(=O)(=O)c1nnc(N2C(=O)c3cccnc3C2=O)s1	9 mmHg
Cl.NS(=O)(=O)c1nc2ccc(OCCONC(=O)c3cccc(C(=O)O)n3)cc2s1	7.2 mmHg
CCN(C(=O)c1cccnc1C(=O)O)C1CC(C)S(=O)(=O)c2sc(S(N)(=O)=O)cc21.CCN(C(=O)c1ncccc1C(=O)O)C1CC(C)S(=O)(=O)c2sc(S(N)(=O)=O)cc21.Cl (stereo not given)	5.2 mmHg

Species on record: Oryctolagus cuniculus
Assay type: functional, Eye
Remark: another data set of the same source
Description: In vivo fall of IOP of normotensive rabbits after treatment with 1 drop(50 microL) of 2% solution of CA inhibitor with pH value 5.5 into the eye at 0 min

SMILES	Delta IOP
Cl.NS(=O)(=O)c1ccc(CCN2C(=O)c3cccnc3C2=O)cc1	0 mmHg
Cl.NS(=O)(=O)c1ccc(NC(=O)c2cccc(C(=O)O)n2)c(F)c1	0 mmHg
Cl.NS(=O)(=O)c1nnc(N2C(=O)c3cccnc3C2=O)s1	0 mmHg
NS(=O)(=O)c1nnc(NC(=O)c2cccc(C(=O)[O-])n2)s1.[Na+]	0 mmHg
Cl.NS(=O)(=O)c1nc2ccc(OCCONC(=O)c3cccc(C(=O)O)n3)cc2s1	0 mmHg
CCN(C(=O)c1cccnc1C(=O)O)C1CC(C)S(=O)(=O)c2sc(S(N)(=O)=O)cc21.CCN(C(=O)c1ncccc1C(=O)O)C1CC(C)S(=O)(=O)c2sc(S(N)(=O)=O)cc21.Cl (stereo not given)	0 mmHg

Target: T2, Carbonic anhydrase 2 (Homo sapiens, UniProt P00918)
Description: Inhibitory activity against human recombinant carbonic anhydrase II

SMILES	Ki
NS(=O)(=O)c1ccc(NNC(=O)c2cccc(C(=O)O)n2)cc1	270 nM
NS(=O)(=O)c1ccc(CNC(=O)c2cccc(C(=O)O)n2)cc1	36 nM
NS(=O)(=O)c1ccccc1N1C(=O)c2cccnc2C1=O	280 nM
NS(=O)(=O)c1ccc(CCONC(=O)c2cccc(C(=O)O)n2)cc1	15 nM
NS(=O)(=O)c1ccc(CCNC(=O)c2cccc(C(=O)O)n2)cc1	7 nM
NS(=O)(=O)c1nnc(NC(=O)CCNC(=O)c2cccc(C(=O)O)n2)s1	2 nM
NS(=O)(=O)c1ccc(NN2C(=O)c3cccnc3C2=O)cc1	275 nM
NS(=O)(=O)c1cc(S(N)(=O)=O)c(NC(=O)c2cccc(C(=O)O)n2)cc1Cl	9 nM
NS(=O)(=O)c1ccc(CONC(=O)c2cccc(C(=O)O)n2)cc1	20 nM

Target: T3, Carbonic anhydrase 1 (Homo sapiens, UniProt P00915)
T3 sequence (P00915 whole entry): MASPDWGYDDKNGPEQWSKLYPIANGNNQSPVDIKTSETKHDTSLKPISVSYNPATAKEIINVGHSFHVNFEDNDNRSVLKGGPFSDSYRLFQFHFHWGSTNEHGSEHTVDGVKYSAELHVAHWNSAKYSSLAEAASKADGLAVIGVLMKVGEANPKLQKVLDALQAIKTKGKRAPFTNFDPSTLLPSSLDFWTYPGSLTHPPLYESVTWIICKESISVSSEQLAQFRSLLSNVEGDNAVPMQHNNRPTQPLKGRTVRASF
Description: Inhibition of human cloned Carbonic anhydrase I (hCA I,cytosolic form)

Ki	SMILES
600 nM	NS(=O)(=O)c1ccc(NC(=O)c2cccc(C(=O)O)n2)c(Cl)c1
500 nM	NS(=O)(=O)c1cc(S(N)(=O)=O)c(N2C(=O)c3cccnc3C2=O)c(Cl)c1Cl

Target: T2, Carbonic anhydrase 2
Remark: another data set of the same source
Description: Inhibitory activity against human cloned Carbonic anhydrase II (hCA II, cytosolic form).

Ki	SMILES
12 nM	NS(=O)(=O)c1cc(S(N)(=O)=O)c(N2C(=O)c3cccnc3C2=O)c(Cl)c1Cl

Target: T3, Carbonic anhydrase 1
Remark: another data set of the same source
Description: Inhibitory activity against human cloned carbonic anhydrase isozyme I (hCA I, cytosolic form).

SMILES	Ki
NS(=O)(=O)c1ccc(NNC(=O)c2cccc(C(=O)O)n2)cc1	20600 nM
NS(=O)(=O)c1nnc(NC(=O)CCNC(=O)c2cccc(C(=O)O)n2)s1	19 nM
NS(=O)(=O)c1ccc(NN2C(=O)c3cccnc3C2=O)cc1	21500 nM
Nc1c(S(N)(=O)=O)cc(S(N)(=O)=O)c(Cl)c1Cl	6100 nM
CCN(C(=O)c1cccnc1C(=O)O)C1CC(C)S(=O)(=O)c2sc(S(N)(=O)=O)cc21.CCN(C(=O)c1ncccc1C(=O)O)C1CC(C)S(=O)(=O)c2sc(S(N)(=O)=O)cc21 (stereo not given)	450 nM
NS(=O)(=O)c1ccc(CONC(=O)c2cccc(C(=O)O)n2)cc1	2050 nM

Further lines, results first:

Ki	SMILES
600 nM	NS(=O)(=O)c1ccc(NC(=O)c2cccc(C(=O)O)n2)c(I)c1
21000 nM	NS(=O)(=O)c1ccccc1N1C(=O)c2cccnc2C1=O
2000 nM	NS(=O)(=O)c1ccc(CCONC(=O)c2cccc(C(=O)O)n2)cc1
15000 nM	NS(=O)(=O)c1ccc(NC(=O)c2cccc(C(=O)O)n2)cc1

System: not listed separately
Test: Compound was tested for solubility in pH buffer, at 25 degree C.
Assay type: ADME

solubility	SMILES
40 µM (≈ 10.3 µg/mL)	CCOc1ccc2nc(S(N)(=O)=O)sc2c1 [ETHOXZOLAMIDE]

Species on record: Oryctolagus cuniculus
Assay type: functional, Eye
Remark: another data set of the same source
Description: In vivo fall of IOP of normotensive rabbits after treatment with 1 drop(50 microL) of 2% solution of CA inhibitor with pH value 5.5 into the eye at 90 min.

SMILES	Delta IOP
Cl.NS(=O)(=O)c1ccc(CCN2C(=O)c3cccnc3C2=O)cc1	4.2 mmHg
Cl.NS(=O)(=O)c1ccc(NC(=O)c2cccc(C(=O)O)n2)c(F)c1	3.9 mmHg
Cl.NS(=O)(=O)c1nnc(N2C(=O)c3cccnc3C2=O)s1	8.1 mmHg
Cl.NS(=O)(=O)c1nc2ccc(OCCONC(=O)c3cccc(C(=O)O)n3)cc2s1	9 mmHg
CCN(C(=O)c1cccnc1C(=O)O)C1CC(C)S(=O)(=O)c2sc(S(N)(=O)=O)cc21.CCN(C(=O)c1ncccc1C(=O)O)C1CC(C)S(=O)(=O)c2sc(S(N)(=O)=O)cc21.Cl (stereo not given)	3.5 mmHg

Species on record: Oryctolagus cuniculus
Assay type: functional, Eye
Remark: another data set of the same source
Description: In vivo fall of IOP of normotensive rabbits after treatment with 1 drop(50 microL) of 2% solution of CA inhibitor with pH value 5.5 into the eye at 30 min

SMILES	Delta IOP
Cl.NS(=O)(=O)c1ccc(CCN2C(=O)c3cccnc3C2=O)cc1	2.7 mmHg
Cl.NS(=O)(=O)c1ccc(NC(=O)c2cccc(C(=O)O)n2)c(F)c1	2.5 mmHg
Cl.NS(=O)(=O)c1nnc(N2C(=O)c3cccnc3C2=O)s1	5.4 mmHg
Cl.NS(=O)(=O)c1nc2ccc(OCCONC(=O)c3cccc(C(=O)O)n3)cc2s1	4 mmHg
CCN(C(=O)c1cccnc1C(=O)O)C1CC(C)S(=O)(=O)c2sc(S(N)(=O)=O)cc21.CCN(C(=O)c1ncccc1C(=O)O)C1CC(C)S(=O)(=O)c2sc(S(N)(=O)=O)cc21.Cl (stereo not given)	2.4 mmHg

Source: ChEMBL document CHEMBL1132301, “Carbonic anhydrase inhibitors. Synthesis of water-soluble, topically effective, intraocular pressure-lowering aromatic/heterocyclic sulfonamides containing cationic or anionic moieties: is the tail more important than the ring?” (J Med Chem, 1999)
